Assay results from ChEMBL document CHEMBL2203267, “Synthesis, antioxidant and antimicrobial activity of novel vanillin derived piperidin-4-one oxime esters: preponderant role of the phenyl ester substituents on the piperidin-4-one oxime core” (Bioorg Med Chem Lett, 2012).

What was measured:
[1] = tested on: Pseudomonas aeruginosa; assay: Antibacterial activity against Pseudomonas aeruginosa ATCC 27853 at 1000 ug/mL after 24 hrs by well plate method; format: functional; conditions: ATCC 27853, 24 h, read-out: DIZ
[2] = tested on: Staphylococcus aureus; assay: Antibacterial activity against Staphylococcus aureus ATCC 25923 at 500 ug/mL after 24 hrs by well plate method; format: functional; conditions: ATCC 25923, 24 h, read-out: DIZ
[3] = tested on: Staphylococcus aureus; assay: Antibacterial activity against Staphylococcus aureus ATCC 25923 at 1000 ug/mL after 24 hrs by well plate method; format: functional; conditions: ATCC 25923, 24 h, read-out: DIZ
[4] = tested on: Escherichia coli; assay: Antibacterial activity against Escherichia coli ATCC 25922 at 500 ug/mL after 24 hrs by well plate method; format: functional; conditions: ATCC 25922, 24 h, read-out: DIZ
[5] = tested on: Escherichia coli; assay: Antibacterial activity against Escherichia coli ATCC 25922 at 1000 ug/mL after 24 hrs by well plate method; format: functional; conditions: ATCC 25922, 24 h, read-out: DIZ
[6] = Antioxidant activity assessed as ABTS+ radical scavenging activity after 30 mins by UV-vis spectrophotometric analysis; format: functional
[7] = tested on: Liver microsomes; assay: Antioxidant activity in Wistar rat liver microsomes assessed as inhibition of lipid peroxidation after 60 mins by UV-vis spectrophotometric analysis; format: functional, Microsome
[8] = tested on: Radical scavenging activity; assay: Antioxidant activity assessed as DPPH radical scavenging activity after 20 mins by UV-vis spectrophotometric analysis; format: functional
[9] = tested on: Candida albicans; assay: Antifungal activity against Candida albicans MTCC 3017 at 500 ug/mL after 72 hrs by well plate method; format: functional; conditions: MTCC 3017, 72 h, read-out: DIZ
[10] = tested on: Candida albicans; assay: Antifungal activity against Candida albicans MTCC 3017 at 1000 ug/mL after 72 hrs by well plate method; format: functional; conditions: MTCC 3017, 72 h, read-out: DIZ
[11] = Antifungal activity against Chrysosporium keratinophilum MTCC 2827 at 500 ug/mL after 72 hrs by well plate method; format: functional
[12] = Antifungal activity against Chrysosporium keratinophilum MTCC 2827 at 1000 ug/mL after 72 hrs by well plate method; format: functional
[13] = tested on: Aspergillus flavus; assay: Antifungal activity against Aspergillus flavus MTCC 3306 at 500 ug/mL after 72 hrs by well plate method; format: functional; conditions: MTCC 3306, 72 h, read-out: DIZ
[14] = tested on: Aspergillus flavus; assay: Antifungal activity against Aspergillus flavus MTCC 3306 at 1000 ug/mL after 72 hrs by well plate method; format: functional; conditions: MTCC 3306, 72 h, read-out: DIZ
[15] = tested on: Pseudomonas aeruginosa; assay: Antibacterial activity against Pseudomonas aeruginosa ATCC 27853 at 500 ug/mL after 24 hrs by well plate method; format: functional; conditions: ATCC 27853, 24 h, read-out: DIZ

Structure (SMILES) | zone of inhibition at 1000 µg/mL [1] [mm] | zone of inhibition at 500 µg/mL [2] [mm] | zone of inhibition at 1000 µg/mL [3] [mm] | zone of inhibition at 500 µg/mL [4] [mm] | zone of inhibition at 1000 µg/mL [5] [mm] | IC50 [6] [µM] | IC50 [7] [µM] | IC50 [8] [µM] | zone of inhibition at 500 µg/mL [9] [mm] | zone of inhibition at 1000 µg/mL [10] [mm] | inhibition zone (IZ) [11] [mm] | inhibition zone (IZ) [12] [mm] | zone of inhibition at 500 µg/mL [13] [mm] | zone of inhibition at 1000 µg/mL [14] [mm] | zone of inhibition at 500 µg/mL [15] [mm]
COc1cc(C2CC(=NOC(=O)c3cc(O)c(O)c(O)c3)CC(c3ccc(O)c(OC)c3)N2C)ccc1O (configuration not stated) | 4 | 4 | 6 | 5 | 7 | 11.8 | 16.1 | 10 | 6 | 8 | 3 | 4 | 2 | 4 | 3
COc1ccc(C(=O)ON=C2CC(c3ccc(O)c(OC)c3)N(C)C(c3ccc(O)c(OC)c3)C2)c(OC)c1 (configuration not stated) | 6 | 3 | 5 | 4 | 6 | 41 | 52 | 32 | 4 | 6 | 4 | 5 | 4 | 5 | 6
CN[C@@H]1[C@H](O[C@H]2[C@H](O[C@H]3[C@H](O)[C@@H](O)[C@H](N=C(N)N)[C@@H](O)[C@@H]3N=C(N)N)O[C@@H](C)[C@]2(O)C=O)O[C@@H](CO)[C@H](O)[C@H]1O [STREPTOMYCIN] | 16 | 12 | 15 | 12 | 18 |  |  |  |  |  |  |  |  |  | 13
COc1cc(C2CC(=NOC(=O)c3cc(OC)c(OC)c(OC)c3)CC(c3ccc(O)c(OC)c3)N2C)ccc1O (configuration not stated) | 5 | 4 | 6 | 4 | 5 | 53 | 61 | 40 | 3 | 3 | 3 | 6 | 4 | 3 | 3
COc1ccc(C(=O)ON=C2CC(c3ccc(O)c(OC)c3)N(C)C(c3ccc(O)c(OC)c3)C2)cc1 (configuration not stated) | 4 | 2 | 4 | 2 | 3 | 33 | 40 | 28 | 5 | 7 | 4 | 4 | 5 | 6 | 3
COc1cc(C2CC(=NOC(=O)c3ccc(O)cc3)CC(c3ccc(O)c(OC)c3)N2C)ccc1O (configuration not stated) | 3 | 4 | 6 | 4 | 5 | 15.1 | 22.5 | 14.2 | 2 | 2 | 2 | 3 | 12 | 1 | 2
COc1cc(C2CC(=NO)CC(c3ccc(O)c(OC)c3)N2C)ccc1O (configuration not stated) | 1 | 0 | 1 | 0 | 1 | 158 | 167 | 144 | 0 | 1 | 1 | 1 | 0 | 1 | 0
COc1cc(C2CC(=NOC(=O)c3ccc(F)cc3)CC(c3ccc(O)c(OC)c3)N2C)ccc1O (configuration not stated) | 16 | 13 | 15 | 13 | 18 | 141 | 140 | 133 | 18 | 20 | 14 | 12 | 13 | 17 | 13
COc1cc(C2CC(=NOC(=O)c3ccccc3)CC(c3ccc(O)c(OC)c3)N2C)ccc1O (configuration not stated) | 2 | 3 | 4 | 2 | 3 | 156 | 165 | 141 | 2 | 3 | 2 | 3 | 1 | 2 | 1
COc1cc(C2CC(=NOC(=O)c3cc(O)cc(O)c3)CC(c3ccc(O)c(OC)c3)N2C)ccc1O (configuration not stated) | 5 | 5 | 5 | 5 | 4 | 12.3 | 17.2 | 10.8 | 3 | 3 | 2 | 1 | 1 | 2 | 4
COc1cc(C2CC(=NOC(=O)c3ccc(Br)cc3)CC(c3ccc(O)c(OC)c3)N2C)ccc1O (configuration not stated) | 9 | 7 | 9 | 7 | 11 | 108 | 112 | 103 | 8 | 9 | 5 | 7 | 5 | 6 | 7
OC(Cn1cncn1)(Cn1cncn1)c1ccc(F)cc1F [FLUCONAZOLE] |  |  |  |  |  |  |  |  | 20 | 22 | 16 | 17 | 12 | 14 | 
